In patent publication US11091429B2, “Organic compounds” (Givaudan SA, priority 2012, dated 2021):
Entries after “also recorded” stand apart in the source; their conditions may differ.

What was measured:
[1] = Tasting in mango still beverage, 6% clear mango juice; conditions: 0.5 ppm; 6% clear mango juice (full juice)
Protocol: (§1) Mango Flavoured Still Beverage Containing Different Levels of Juice,
(§2) In a Mango flavoured still beverage, sweetened with 8% sucrose and containing 0.1% citric acid and 1%, 4% and 6% clear mango juice flavoured with a proprietary Mango flavour @ 0.05%, C18:2-gaba and C18:2-Pro were added, as such (separate) and in combination.
(§3) All samples were evaluated by expert tasters. Tasters were asked to describe the samples focusing on authentic taste, juicy mouthfeel, enhancement, richness, juiciness, long lastingness, salivation, sweetness.
In a Mango-flavoured still beverage, sweetened with 8% sucrose & containing 0.1% citric acid and 6% clear mango juice flavoured with Mango flavour@0.05%, C18:2-gaba and C18:2-Pro were added, as such (separate) and in combination.
Base is water, 8% sucrose, 0.1% citric acid, 6% clear mango juice (full juice), flavoured with Mango flavor, dosed at 0.05%.

[2] = Tasting in mango still beverage, 4% clear mango juice; conditions: 0.5 ppm; 4% clear mango juice (30% reduced juice)
Protocol: as §1, §2, §3
In a Mango flavoured still beverage, sweetened with 8% sucrose & containing 0.1% citric acid and 4% clear mango juice flavoured with Mango flavour @ 0.05%, C18:2-gaba and C18:2-Pro were added, as such (separate) and in combination.
Base is water, 8% sucrose, 0.1% citric acid, 4% clear mango juice (30% reduced juice), flavoured with Mango flavor, dosed at 0.05%

Test on Tang = conditions: 1 ppm, orange flavoured Tang
Protocol: In an orange flavoured Tang powdered soft drink (market product) sweetened with sucrose plus high intensity sweetener and containing citric acid, C18:2-gaba and C18:2-pro were tested.
All samples were evaluated by expert tasters. Tasters were asked to describe the samples focusing on authentic taste, mouthfeel & body, enhancement, richness, juiciness, long lastingness, salivation, sweetness, masking off notes of high intensity sweetener
Base is Orange Flavoured Tang

Test in lemon beverage = conditions: 1 ppm; water, 7% sucrose, 0.15% citric acid, lemon flavor
Protocol: (§4) Samples were evaluated by expert tasters. Tasters were asked to describe the samples focusing on authentic taste, mouthfeel, fullness, salty-ness, salivation, umami, sweetness, juiciness, richness, long lastingness and fattiness.
Basis water, 7% sucrose, 0.15% citric acid, proprietary lemon flavor
(§5) Samples were evaluated by expert tasters. Tasters were asked to describe the samples focusing on authentic taste, mouthfeel, fullness, salty-ness, salivation, umami, sweetness, juiciness, richness, long lastingness and fattiness

Test in orange beverage = conditions: 1 ppm; water, 7% sugar (8% sucrose elsewhere in the source), 0.1% citric acid, orange flavour 0.06%
Protocol: as §4
Base is water, 7% sugar, 0.1% citric acid, proprietary orange flavour @ 0.06%.
as §5
Base is water, 7% sugar, 0.1% citric acid, proprietary orange flavour @ 0.06%
(§6) Samples were evaluated by expert tasters. Tasters were asked to describe the samples focusing on authentic taste, mouth feel, fullness, salivation, salty-ness, umami, sweetness, juiciness, richness, long lastingness and fattiness
Samples were evaluated by expert tasters. Tasters were asked to describe the samples focusing on authentic taste, mouthfeel, fullness, salivation, sweetness, juiciness, richness, long lastingness and fattiness
Comparison in an Orange Drink
Base: water, 8% sucrose, 0.1% citric acid, proprietary orange flavour @ 0.06%.

[3] = Tasting in mango juice drink, 1% clear mango juice; conditions: 8% sucrose, 0.1% citric acid, mango flavour 0.05%
Protocol: Comparison in a Mango Juice Drink
Base is 8% sucrose, 0.1% citric acid, 1% clear mango juice, and a proprietary mango flavour at 0.05%.
as §4
Base is water, 8% sucrose, 0.1% citric acid, 1% clear mango juice, proprietary mango flavour @ 0.05%
(§7) Samples were evaluated by expert tasters. Tasters were asked to describe the samples focusing on authentic taste, mouthfeel, fullness, salivation, salty-ness, umami, sweetness, juiciness, richness, long lastingness and fattiness.
Base is water, 8% sucrose, 0.1% citric acid, 1% clear mango juice, proprietary mango flavour @0.05%
as §5
Base is 8% sucrose, 0.1% citric acid, 1% clear mango juice, proprietary mango flavour @ 0.05%
as §6
Base is water, 8% sucrose, 0.1% citric acid, 1% clear mango juice, proprietary mango flavour @ 0.05%.
Test in a Mango Juice Drink

[4] = Tasting in beef bouillon base; conditions: 0.5% fat
Protocol: (§8) The following formulations were prepared and tasted by trained panelists.
Beef Bouillon base 1.0% salt, 0.5% fat

[5] = Tasting on fried potato snack product; conditions: 35% fat, cheese seasoning
Protocol: as §8
A snack product consisting of a fried potato base, containing 35% fat and flavored with cheese seasoning containing salt, MSG, dairy, organic acids, sugars, and a flavour formulation. The following compounds were added to the snack product at the indicated levels and the tasting results are reported: […]

[6] = Tasting in Maggi beef bouillon; conditions: Maggi beef bouillon 1 tablet in 500 ml of hot water
Protocol: (§9) Samples were prepared and evaluated by expert tasters. Tasters were asked to describe the samples focusing on authentic taste, mouthfeel, fullness, salty-ness, salivation, umami, sweetness, juiciness, richness, long lastingness and fattiness.
Comparison in Beef Bouillon
Base is Maggi beef bouillon 1 tablet in 500 ml of hot water
as §4, §7, §5, §6

[7] = Tasting in vanilla flavoured milk 3.0% fat; conditions: 4% sugar, vanillin 10 ppm, vanilla extract 0.03%
Protocol: Vanilla Flavoured Milk 3.0% Fat
In a 3% fat milk drink, sweetened with 4% sucrose by weight, flavoured with Vaniline @ 10 ppm and a Vanilla extract @ 0.03% C18:2-gaba, C18:1-ACOA and C18:1-glu were added at 0.5 or 2 ppm.
Samples were evaluated by expert tasters. Tasters were asked to describe the samples focusing on authentic taste, mouthfeel, fullness, salivation, sweetness, juiciness, richness, long lastingness and fattiness.
Base: Milk 3% fat, 4% sugar, vanillin 10 ppm, vanilla extract 0.03%

Tasting in soy sauce = conditions: 0.5 ppm in Kikkoman soy sauce low salt
Protocol: as §8
Salt level pure product between 5-40%
Salt level in application 0.3-1.0%
as §9
Test on Kikkoman Soy Sauce Low Salt
Base is Kikkoman soy sauce
Samples were prepared and evaluated by expert tasters. Tasters were asked to describe the samples focusing on authentic taste, mouthfeel, fullness, salivation, salty-ness, umami, sweetness, juiciness, richness, long lastingness and fattiness.

[8] = Test in pear flavoured drink; conditions: water, 0.1% citric acid, pear flavour 0.025%
Protocol: as §9
Test in Pear Flavoured Drink:
Base: water, 7% sugar, 0.1% citric acid, proprietary pear flavour at 0.025%
as §4
Comparison in a Pear Drink
Base is water, 8% sugar, 0.1% citric acid, proprietary pear flavour at 0.025%

[9] = Test in peach flavoured drink; conditions: 1 ppm; water, 8% sugar, 0.1% citric acid, peach flavour 0.05%
Protocol: as §9
Test in Peach Flavoured Drink:
Base is water, 8% sugar, 0.1% citric acid, and proprietary peach flavour at 0.05%
as §4
Comparison in a Peach Drink
Base is water, 8% sugar, 0.1% citric acid, proprietary peach flavour at 0.05%
as §7

[10] = Tasting in strawberry drink; conditions: 0.5 ppm; 7% sucrose, 0.1% citric acid, strawberry flavour 0.015%
Protocol: as §9
Comparison in a Strawberry Drink
Base is 7% sucrose, 0.1% citric acid, and a proprietary strawberry flavour @ 0.015%
as §4
Base is water, 7% sucrose, 0.1% citric acid, proprietary strawberry flavour @ 0.015%
as §7
Test in a Strawberry Drink
Base is 7% sucrose, 0.1% citric acid, proprietary strawberry flavour @ 0.015%

[11] = Tasting in vanilla milk 0.15% fat; conditions: 4% sucrose, Vaniline 10 ppm + vanilla extract 0.03%
Protocol: as §9
Base: Milk 0.15% fat, sweetened with 4% sucrose by weight, flavoured with proprietary
Vaniline flavour @ 10 ppm+Vanilla ext. @ 0.03%
as §4
Comparison in a Vanilla Milk Drink
Vaniline @ 10 ppm+Vanilla extract @ 0.03%
Base: Milk 0.15% fat, sweetened with 4% sucrose by weight, flavoured with proprietary Vaniline @ 10 ppm+Vanilla extract @ 0.03%

[12] = Test in chocolate flavoured drink; conditions: water, 4% sucrose, chocolate flavour 0.03%
Protocol: as §9
Test in Chocolate Flavoured Drink:
Base: Water, 4% sucrose, proprietary chocolate flavor at 0.03%
as §4
Test in Chocolate Flavoured Drink Flavoured
Base: Water, 4% sucrose, proprietary chocolate flavour @ 0.03%

[13] = Tasting in Activa strawberry yoghurt; conditions: 2 ppm, 13.5% sugar, 3.2% fat
Description: Activa Strawberry Yoghurt
In a Full fat, Activa strawberry flavoured yoghurt containing 13.5% sugar, 3.2% fat C18:2-gaba and C18:0-leu at 2 ppm

[14] = Tasting in strawberry flavoured sugar sweetened yoghurt; conditions: 1.5% fat yoghurt, 8% sucrose, strawberry flavour 0.015%
Protocol: Strawberry Flavoured Sugar Sweetened Yoghurt
In a 1.5% fat yoghurt base, sweetened with 8% sucrose by weight, flavoured with a proprietary strawberry flavour @ 0.015% several different N-acyl aminoacids were added.
as §9
Test in a Strawberry Yoghurt
Base: Yoghurt 1.5% fat yoghurt, 8% sucrose, proprietary strawberry flavour @ 0.015%
as §7

[15] = 1 ppm, 7% sugar (8% elsewhere in the source)

## CCCCC/C=C\C/C=C\CCCCCCCC(=O)N1CCC[C@H]1C(=O)O [C18:2-Pro, N-linoleoyl-Pro]
[1]
  tasting result: more sweet, sugar-like, very juicy and long lasting sweet, salivating, syrupy
[2]
  tasting result: more sweet, sugar-like, very juicy and long lasting sweet, salivating
Test on Tang
  tasting result: very fresh, enhances sweet juicy orange notes, characteristic of authentic fresh orange fruit. Additionally, the off-notes of the high intensity sweetener were suppressed
Test in lemon beverage
  tasting result: very juicy, more citral like, very authentic
Test in orange beverage
  tasting result: very juicy, authentic orange
[3]; 0.5 ppm
  tasting result: more sweet, sugar-like, very juicy and long lasting sweet, salivating

## CCCCCCCC/C=C\CCCCCCCC(=O)NC(CCSC)C(=O)O (centres unmarked) [C18:1-met]
[4]; 0.5 PPM in beef bouillon base 1.0% salt
  tasting result: Very salty and rich
[4]; 1.0 PPM in beef bouillon base 1.0% salt
  tasting result: Full bodied, long lasting, more mouthfeel
Test in lemon beverage
  tasting result: fresh, less floral, very juicy, very authentic
[5]; 0.25 ppm on fried potato snack
  tasting result: Salty, aged cheese, succulent
[5]; 0.5 ppm on fried potato snack
  tasting result: Increased cheese, creamy, salty and succulent
Test in orange beverage
  tasting result: very juicy fresh, authentic, juicy
[6]; 1 ppm
  tasting result: very strong salty impact and aftertaste; also recorded: very strong salty impact and aftertaste, more fatty, mouthfeel, lingering full bodied
[6]; 25 ppb
  tasting result: more peppery, more salty
[6]; 50 ppb
  tasting result: more salty, more bouillon taste
[3]; 1 ppm
  tasting result: sweeter, juicy, salivating

## N-oleoyl 1-amino-cyclopropyl carboxylic acid [C18:1-ACCA]
[7]; 0.5 ppm
  tasting result: sweet, sugar-like, vanillic
Tasting in soy sauce
  tasting result: Strong upfront saltiness lingering, very strong saltiness

## CCCCCCCC/C=C\CCCCCCCC(=O)NC(CCC(=O)O)C(=O)O (centres unmarked) [C18:1-glu]
[8]; 0.5 ppm, 7% sugar
  tasting result: nice fatty, juicy, long lasting
[8]; [15]
  tasting result: ripe, authentic pear, juicy, fatty skin like
[9]
  tasting result: ripe, much more juicy, long lasting, more fatty and sweet
[10]
  tasting result: nice mouthfeel, more natural strawberry, full juicy
[11]; 1 ppm
  tasting result: full, beany, more sweet; also recorded: sweet vanillic
[7]; 2 ppm
  tasting result: full, fatty, vanilla bean enhanced, whipped cream like
[12]; 0.5 ppm
  tasting result: full cocoa, nice sweet
[3]; 1 ppm
  tasting result: heavy, jammy, enhanced mango, more sulfury, sl umami

## CCCCCC/C=C\CCCC(=O)NC(CCSC)C(=O)O (centres unmarked) [C12:1-met]
Test in lemon beverage
  tasting result: fresh, slightly more citral
Test in orange beverage
  tasting result: nice orange, fresh
[6]; 1 ppm
  tasting result: more salty
[3]; 1 ppm
  tasting result: ripe full, more juicy, slightly metallic

## CCCCC/C=C\C/C=C\CCCCCCCC(=O)NC(CC(=O)O)C(=O)O (centres unmarked) [C18:2-asp, N-linoleoyl-Asp]
[8]; [15]
  tasting result: very juicy, authentic, texture like pear 3D
[9]
  tasting result: fatty skin like, slight apple note
[11]; 2 ppm
  tasting result: sweet full very natural vanilla
[12]; 2 ppm
  tasting result: cardboard, sweet diy
[3]; 1 ppm
  tasting result: fatty, authentic fruit like, slight raspberry and pear note

## CCCCCCCCCCCCCCCCCC(=O)NC(CC(C)C)C(=O)O (centres unmarked) [C18:0-leu]
[13]
  tasting result: very juicy strawberry full, 3D, stronger strawberry, long lasting and creamy
[10]
  tasting result: fruity authentic strawberry, stronger strawberry, ripe, long lasting, juicy
[14]; 2 ppm
  tasting result: fruity authentic strawberry, stronger strawberry, ripe, long lasting, juicy, creamy yoghurt
[14]; 2 ppm, listed as C18:0 leu
  tasting result: Very juicy full, 3D, stronger nicer strawberry, long lasting nice creamy aftertaste
[14]; 5 ppm
  tasting result: Very juicy full, 3D, stronger nicer strawberry, salivating long lasting
[3]; 2 ppm
  tasting result: fruity strawberry like, ripe, long lasting
